This note sets out measurements from EP4818177A1, “TRICYCLIC DERIVATIVE INHIBITOR, AND PREPARATION METHOD AND USE THEREFOR” (Shanghai Hansoh Biomedical Co., Ltd., priority 2023, dated 2025).

Molecules are shown by their SMILES.

In data set [1] the target is T1, PRMT5/MEP50-MTA protein complex (Homo sapiens, UniProt O14744).
T1 construct: purchased Viva Biotech
Nature of the data set: Thermal shift assay: change in melting temperature of the PRMT5/MEP50-MTA protein complex. To be noted: compound 8 µM, PRMT5/MEP50 2 µM, MTA 2 µM; Tm minus DMSO vehicle control. The format is binding. In short, it runs like this: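 Human PRMT5/MEP50 (2 µM) preincubated 30 min at room temperature in 50 mM HEPES, 10 mM DTT, 250 mM NaCl with 2 µM MTA and SYPRO Orange. Compound at 8 µM final, 10 min at room temperature, 2.5% DMSO vehicle control. Melt curve 25→95°C at 0.03°C/s gives Tm.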

For data set [2], the system named is MTAP Knockout HCT116 cells. Nature of the data set: Cell proliferation inhibition (CellTiter-Glo), MTAP knockout cells. Type of data set: cell-based. To be noted: for Selectivity: HCT116 versus MTAP Knockout HCT116; for IC50: Homo sapiens, HCT-116, MTAP Knockout HCT116 cells, 72-240 hours incubation, CellTiter-Glo. In short, it runs like this:
(§1)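 HCT116 wild-type and MTAP knockout cells in McCoy's 5A with 10% FBS were seeded overnight, then exposed to compound dilutions for 72–240 h at 37°C, 5% CO2. Viability was read by CellTiter-Glo luminescence. IC50 came from non-linear regression of inhibition versus concentration.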
A general note: In ATP-based viability assays light output follows the ATP content of the culture.

Data set [3] deals with HCT116 wild-type cells. Nature of the data set: Cell proliferation inhibition (CellTiter-Glo), wild-type cells. Type of data set: cell-based. The conditions noted are these: 72-240 hours incubation. The method, boiled down:
as §1

The nature of data set [4]: in vivo. The conditions noted are these: rat, po, 5 mg/kg.
Protocol: (§2) Test Example 4: Determination of the pharmacokinetics of the compounds of the present invention in rats (plasma) after oral administration.
(§3) Study objective: SD rats were used as test animals to study the pharmacokinetic behaviour of the following example compounds in rats (plasma) after oral administration at a dose of 5 mg/kg. […] Test scheme 2.1 Test drugs: Vehicle formula: 0.5% CMC-Na (1% Tween 80); the examples of the present invention, prepared in house. 2.2 Test animals: 3 SD rats per group, male, purchased from Shanghai Bikai Keyi Biotechnology Co., Ltd., with animal license number (SCXK (Shanghai) 2018-0006, No.20180006037467). 2.3 Administration: 3 SD rats per group, male, were fasted overnight and then respectively administered PO at a dose of 5 mg/kg and a volume of 10 mL/kg. 2.4 Sample collection: 0.2 mL of blood was collected from the jugular vein of rats before administration and at 0, 0.25, 0.5, 1, 2, 4, 6, 8 and 24 h after administration, and placed in EDTA-K2test tubes, and the test tubes were centrifuged at 6,000 rpm at 4°C for 6 min to separate the plasma, which was stored at -80°C. The animals were fed 4 h after administration. 2.5 Sample treatment • 1) 160 uL of acetonitrile was added to 40 uL of plasma sample for precipitation, and after mixing, the mixture was centrifuged at 3,500 × g for 5-20 minutes. • 2) 100 uL of the treated supernatant solution was taken for LC/MS/MS analysis to determine the concentration of the test compounds. 2.6 Liquid phase analysis • Liquid phase conditions: Shimadzu LC-20AD pump; • Mass spectrometry conditions: AB Sciex API 4000 mass spectrometer; • Chromatographic column: phenomenex Gemiu 5 um C18 50 × 4.6 mm; • Mobile phase: solution A: 0.1% formic acid in water, solution B: methanol; • flow rate: 1.0 mL/min; Elution time: 0-4.0 min, with eluents as follows:
(§4) Experimental results and analysis: The main pharmacokinetic parameters were calculated using WinNonlin 8.2.
The target in data set [5] is T2, hERG potassium channel (Homo sapiens, UniProt Q12809).
T2 construct: host or cells: CHO cells stably expressing hERG (CHO-hERG)
T2 sequence (Q12809 whole entry): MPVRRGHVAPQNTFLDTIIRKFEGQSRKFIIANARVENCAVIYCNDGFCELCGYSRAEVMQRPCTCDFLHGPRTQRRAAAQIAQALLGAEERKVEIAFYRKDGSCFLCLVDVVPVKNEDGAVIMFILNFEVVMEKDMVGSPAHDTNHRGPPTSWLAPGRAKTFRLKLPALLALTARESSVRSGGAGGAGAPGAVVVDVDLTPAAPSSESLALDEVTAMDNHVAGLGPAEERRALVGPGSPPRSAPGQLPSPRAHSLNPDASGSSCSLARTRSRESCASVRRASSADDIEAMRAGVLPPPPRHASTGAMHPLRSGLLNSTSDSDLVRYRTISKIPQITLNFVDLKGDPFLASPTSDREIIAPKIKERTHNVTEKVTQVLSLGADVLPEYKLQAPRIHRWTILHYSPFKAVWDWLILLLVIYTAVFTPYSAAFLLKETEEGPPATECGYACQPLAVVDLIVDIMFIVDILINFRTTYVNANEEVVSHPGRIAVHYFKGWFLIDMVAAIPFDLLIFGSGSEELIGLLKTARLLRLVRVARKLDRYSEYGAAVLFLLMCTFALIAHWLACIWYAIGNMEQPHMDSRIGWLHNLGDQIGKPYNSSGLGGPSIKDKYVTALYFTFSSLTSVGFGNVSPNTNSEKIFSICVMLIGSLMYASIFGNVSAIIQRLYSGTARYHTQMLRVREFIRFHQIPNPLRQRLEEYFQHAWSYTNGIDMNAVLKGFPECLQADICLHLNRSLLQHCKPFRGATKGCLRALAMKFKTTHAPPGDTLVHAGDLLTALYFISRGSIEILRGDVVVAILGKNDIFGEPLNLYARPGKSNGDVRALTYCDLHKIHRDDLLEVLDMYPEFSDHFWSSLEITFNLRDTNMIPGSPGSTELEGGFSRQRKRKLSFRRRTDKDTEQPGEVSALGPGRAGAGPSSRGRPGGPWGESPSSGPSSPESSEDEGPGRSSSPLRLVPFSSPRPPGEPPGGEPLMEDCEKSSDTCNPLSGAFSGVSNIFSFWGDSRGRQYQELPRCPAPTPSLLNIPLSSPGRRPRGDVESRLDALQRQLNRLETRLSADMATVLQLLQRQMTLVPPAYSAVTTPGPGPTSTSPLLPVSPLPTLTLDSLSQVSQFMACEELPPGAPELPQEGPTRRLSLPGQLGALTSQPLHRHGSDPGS
Put plainly: hERG potassium channel inhibitory activity assay (patch clamp, CHO-hERG cells). Type of data set: cell-based. To be noted: tail current, read-out: inhibitory activity (IC50) against the cardiac hERG potassium channel. The text has this:
Test Example 5: hERG potassium channel inhibitory activity assay
1. Study objective: to determine the inhibitory effect of the compound on the hERG potassium channel activity. 2. Experimental instruments and reagents: 2.1 Reagents
3. Experimental methods • 3.1 Cell culture: The CHO cells stably expressing the hERG potassium channel (CHO-hERG) used in the experiment were obtained from Sophion Bioscience (Ballerup, Denmark), and passaged and cryopreserved at WuXi AppTec Co., Ltd. in Shanghai. The CHO-hERG cells were cultured and passaged in Ham's F-12 medium containing 1 × GlutaMAX, 10% fetal bovine serum, 100 µg/mL G418 and 100 µg/mL hygromycin B at 37°C with 5% CO2. • 3.2 Preparation of intracellular and extracellular solutions: The extracellular solution was prepared once a month, and aliquoted and stored in 1 L storage bottles. The intracellular solution was prepared once every three months, and aliquoted and cryopreserved at -20°C. The intracellular solution was thawed in a 37°C water bath before the experiment and then placed in an ice bath for later use. • 3.3 Preparation of compounds: The compounds were dissolved in 100% DMSO (Sigma-Aldrich, D2650) to prepare 10 mM or 30 mM stock solutions. Before the experiment, the stock solutions of the test compounds were diluted with DMSO to prepare solutions 1000-fold or 333-fold higher than the desired test concentrations, and then further diluted 1000-fold or 333-fold with the extracellular solution to achieve the desired concentrations. • 3.4 Cell preparation: The CHO-hERG cells used in the experiment were cultured for at least two days. When the cell density reached more than 75%, the cells were digested with TrypLE, then resuspended in the extracellular solution, and centrifuged. The supernatant was discarded, and then the cells were further resuspended in 2 mL of extracellular solution for later use. 4. Experimental data processing: In data processing, the peak tail current was baseline-corrected when evaluating the hERG blocking effect. The effect of each compound at various concentrations was expressed as the inhibition rate of the tail current. IC50 values were obtained by fitting the data to the Hill equation: I/Icontrol = Bottom + (Top−Bottom)/(1+10^(∧)((LogIC50−X)*HillSlope)) [formula] • Top: maximum effect; Bottom: minimum effect; Hillslope: slope; X: concentration of the test compound. • IC50: half-maximal inhibitory concentration of the test compound on hERG. […] 5.
In general terms: Block of hERG is tested as a sign of cardiac risk.

Data set [6] can be described thus: Pharmacokinetics in rats (plasma) after oral administration. To be noted: rat, 5 mg/kg.
Protocol: as §2, §3, §4
[7] abbreviates: Homo sapiens, HCT-116, HCT116 wild-type cells.

T1 sequence (O14744 whole entry): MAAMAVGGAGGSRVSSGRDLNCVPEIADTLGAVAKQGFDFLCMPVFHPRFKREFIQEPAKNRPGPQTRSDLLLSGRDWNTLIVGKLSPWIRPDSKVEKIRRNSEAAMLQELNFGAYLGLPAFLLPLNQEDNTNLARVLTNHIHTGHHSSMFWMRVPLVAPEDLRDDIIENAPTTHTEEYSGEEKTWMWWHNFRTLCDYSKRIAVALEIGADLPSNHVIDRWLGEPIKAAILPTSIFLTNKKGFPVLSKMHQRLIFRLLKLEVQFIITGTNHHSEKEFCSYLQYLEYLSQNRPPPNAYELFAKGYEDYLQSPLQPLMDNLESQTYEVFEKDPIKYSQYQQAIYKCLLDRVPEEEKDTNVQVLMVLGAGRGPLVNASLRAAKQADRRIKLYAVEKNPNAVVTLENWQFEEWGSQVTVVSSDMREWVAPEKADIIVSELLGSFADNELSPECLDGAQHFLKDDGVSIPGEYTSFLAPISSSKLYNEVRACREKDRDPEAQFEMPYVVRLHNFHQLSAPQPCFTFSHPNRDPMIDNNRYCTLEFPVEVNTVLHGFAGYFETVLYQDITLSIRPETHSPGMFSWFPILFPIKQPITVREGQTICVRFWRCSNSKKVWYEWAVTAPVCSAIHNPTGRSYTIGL
T1 sequence (Q9BQA1 whole entry partner): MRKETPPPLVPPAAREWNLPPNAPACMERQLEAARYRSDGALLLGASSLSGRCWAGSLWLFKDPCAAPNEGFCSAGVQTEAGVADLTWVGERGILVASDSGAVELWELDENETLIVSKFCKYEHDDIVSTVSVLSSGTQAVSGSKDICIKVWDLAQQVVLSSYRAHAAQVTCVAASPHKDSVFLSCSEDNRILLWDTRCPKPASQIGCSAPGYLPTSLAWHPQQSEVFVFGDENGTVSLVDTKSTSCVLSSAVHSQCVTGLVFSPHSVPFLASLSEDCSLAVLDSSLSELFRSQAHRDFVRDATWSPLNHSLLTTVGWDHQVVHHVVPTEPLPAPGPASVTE

What is called ΔTm is the change in melting temperature against a reference sample. As usually defined, the IC50 is the midpoint of a concentration-inhibition curve. In general, AUC(0-inf) refers to the area under the concentration-time curve extrapolated to infinity. Low values mean less exposure, high ones more exposure. Broadly, the Cmax is the maximum level reached in the sampled fluid or tissue. As a reminder, the MRT inf is a mean duration of stay, worked out from the concentration-time curve. What is called Tmax is the time at which the peak concentration occurs. Broadly, the half-life is the time needed for the level to fall by half in the phase considered. A higher half-life goes with slow loss. In the case of `CNN(C(=O)c1cc2c3c(c(N)nc2cn1)COC3)C1COc2cc(S(F)(F)(F)(F)F)ccc21` (single isomer, unassigned) [Example 372-P1], the ΔTm at 8 µM in data set [1] amounted to 11.6 °C. Besides, in data set [2], the Selectivity stood at 69 and the IC50 is 12 nM. The IC50 in data set [3] (setting [7]) was determined as 819 nM. Moreover, in data set [4], the AUC(0-inf) amounted to 2570 ng·h/mL, the Cmax is 378 ng/mL, the MRT inf worked out at 4.8 h and the Tmax stood at 2.7 h. In data set [4], this compound had a half-life of 2.7 h.
Take `CNN(C(=O)c1cc2c3c(c(N)nc2cn1)COC3)[C@@H]1COCc2nc(C(F)(F)F)ccc21` [Example 286-P1, (S)-4-amino-N'-methyl-N-(2-trifluoromethyl-5,8-dihydro-6H-pyrano[3,4-b]pyridin-5-yl)-1,3-dihydrofuro[3,4-c][1,7]naphthyridine-8-carbohydrazide]: the ΔTm at 8 µM in data set [1] amounted to 11.1 °C. For the same compound, in data set [2], the Selectivity is given as 118 and the IC50 is 23 nM. Moreover, in data set [3] (setting [7]), the IC50 is 2680 nM. Besides, the IC50 in data set [5] was above 30000 nM. Besides, in data set [6] (male, SD), the AUC(0-inf) worked out at 1280 ng·h/mL, the Cmax came to 480 ng/mL, the MRT inf was found to be 2.5 h and the Tmax was 0.5 h. This compound showed a half-life in data set [6] (male, SD) of 2.1 h.
For `[2H]C([2H])([2H])NN(C(=O)c1cc2c3c(c(N)nc2cn1)[C@@H](C)OC3)[C@@H]1COCc2c1ccn1c(C(F)(F)F)cnc21` [Example 362-P1], the ΔTm at 8 µM in data set [1] came to 12 °C. In addition, in data set [2], the Selectivity came out at 68 and the IC50 stood at 6.7 nM. Also, in data set [3] (setting [7]), the IC50 stood at 450 nM. For the same compound, the IC50 in data set [5] was above 30000 nM. Besides, in data set [6], the AUC(0-inf) is 8180 ng·h/mL, the Cmax is 2750 ng/mL, the MRT inf was 2.8 h and the Tmax amounted to 0.7 h. The compound further had a half-life in data set [6] of 2.7 h.
Take `CNN(C(=O)c1cc2c3c(c(N)nc2cn1)COC3)[C@@H]1COCc2nc(S(F)(F)(F)(F)F)ccc21` [Example 374, 4-Amino-N'-methyl-N-(2-pentafluorosulphanyl-5,8-dihydro-6H-pyrano[3,4-b]pyridin-5-yl)-1,3-dihydrofuran[3,4-c][1,7]naphthyridine-8-hydrazide]: the ΔTm at 8 µM in data set [1] is 12.3 °C. Also, in data set [2], the Selectivity was 23 and the IC50 was found to be 13 nM. Moreover, the IC50 in data set [3] (setting [7]) was determined as 303 nM. Besides, in data set [5], the IC50 is above 30000 nM. In data set [6], the AUC(0-inf) amounted to 1180 ng·h/mL, the Cmax is 652 ng/mL, the MRT inf amounted to 1.9 h and the time of peak concentration (Tmax) was 0.5 h. In addition, in data set [6], the half-life was 1.9 h.
With `[2H]C([2H])([2H])NN(C(=O)c1cc2c(cn1)nc(N)c1cnn(C)c12)C1COCc2c1ccn1c(C(F)(F)F)cnc21` (stereo not shown) [Example 391, 4-Amino-1-methyl-N'-(methyl-d3)-N-(3-trifluoromethyl-7,10-dihydro-8H-imidazo[1,2-a]pyrano[3,4-c]pyridin-7-yl)-1H-pyrazolo[4,3-c][1,7]naphthyridine-8-carbohydrazide], the ΔTm at 8 µM in data set [1] turned out to be 12.7 °C. Moreover, in data set [2], the Selectivity is 28 and the IC50 stood at 13 nM. Also, the IC50 in data set [3] (HCT116 wild-type cells) worked out at 358 nM. In addition, the IC50 in data set [5] is above 30000 nM. In data set [6] (male, SD), the AUC(0-inf) came to 11900 ng·h/mL, the highest level (Cmax) was 1690 ng/mL, the MRT inf is 5.8 h and the Tmax worked out at 1.5 h. For the same compound, in data set [6] (male, SD), the half-life was 4.4 h.
